Experiments:
MM1R subcutaneous tumor = assay: MM1R xenograft model; assay type: in vivo, SCID/Beige mice; settings: oral gavage five times per week
Procedure: (§1) Female SCID/Beige mice at age 4 weeks were housed in ventilated micro-isolator cages (INNOCAGE®IVC, Innovive Inc., San Diego, Calif.) in a controlled climate, fed with sterile high-fat diet (Problab-RMH 2000) ad libitum and provided with sterilized water. All housing and supplies for SCID/Beige mice were sterilized by autoclaving before use. Mice were inspected daily including weekends/holidays by trained animal facility personnel and investigators. All animal procedures were performed under sterile conditions within a biosafety cabinet (for injections) or laminar flow hood (for animal husbandry and non-invasive procedures).
MM1R human MM cells were originally obtained from peripheral blood of a multiple myeloma patient (Goldman-Leikin R E, et al., J Lab Clin Invest. 1980, 13:335-345). Cryopreserved cells were thawed in a 37° C. water bath and cultured in RPMI medium plus 10% Fetal Bovine Serum (FBS) in a tissue culture incubator at 5% CO2. Cells were sent to outside vendors for contaminants and rodent pathogen screening intended to rule out contamination by mycoplasma (by PCR) and/or virus (by MAP test, Mouse Antibody Production). When the cells in culture were enough for implantation, they washed with serum free Hank's balanced salt solution (HBSS). Finally the cells were diluted in HBSS for implantation. […] The implanted mice were monitored for general health and tumor development daily.
(§2) Tumors were detectable about two weeks following implantation. Tumor size was measured with a caliper. […]
(§3) During each animal study, tumors were measured with calipers, tumor size determined using the above mentioned formula, and tumor size changes in percentage calculated. Mouse body weights were measured with a scale twice per week. […] T/C values were calculated using the following formula: % T/C=100×ΔT/ΔC if ΔT>0. […]
The treatment period was 18 days. Tumor sizes and body weights were measured again on the last day of the study.

[1] = test system: SU-DHL4 (diffuse large B-cell lymphoma cell line) xenograft tumors; assay: SU-DHL4 xenograft tumor model; assay type: in vivo, nude mice
Procedure: (§4) SU-DHL4 (diffuse large B-cell lymphoma cell line), H2122 (human NSCLC cell line), Daudi (non-Hodgkin's lymphoma cell line), and OPM2 (multiple myeloma tumor cell line) cells were implanted into either nude or Scid (severe […] immune-deficient) mice. […]. […] The control groups were treated with vehicle using the same dosing schedule as the corresponding active group.
(§5) In another study, the Daudi tumor group was dosed at 50 mg/Kg twice a day for five days per week. […] The SU-DHL4 tumor group was dosed at 100 mg/Kg orally or 50 mg/Kg intravenously.
(§6) Tumors were measured during the study period with an electronic caliper, and body weights were measured twice a week. The following formula was used to calculate the tumor volume: […] Percentage of tumor volume change was used to describe compound activity over the treatment period.

[2] = test system: OPM2 (multiple myeloma tumor cell line) xenograft tumors; assay: OPM2 xenograft tumor model; assay type: in vivo, nude mice; settings: oral 50 mg/kg twice a day, five days per week
Procedure: as §4, §5, §6

[3] = test system: PI3K pathway signaling (AKT, 4EBP-1, p70S6) in H460 cells; assay: Western blot / in-cell-western of PI3K pathway signaling in H460 cells; assay type: cell-based
Procedure: Cell extracts were prepared in the presence of SDS and 2-mercaptoethanol and resolved in polyacrylamide gels. Proteins were transferred to nitrocellulose filter and blotting was done using standard procedures with blocking solutions (Li-Cor Bioscience) containing the indicated primary antibody. Primary antibodies against p-EGFR, EGFR, p-HER2, HER2, p-HER3, HER3, p-MET, MET, p-bRaf, p-cRaf, pMEK, MEK, p-ERK, ERK and tubulin were purchased from Cell Signaling Technology. Secondary antibody conjugated with IRdye 680, 800CW were used and the signal was detected with Li-Cor Odyssey Imager.
Immunocytochemistry was performed on cells grown in monolayer culture that were treated as indicated in the figure legends and then fixed in 4% (w/v) paraformaldehyde. After washing in 1×PBS, immunostaining was performed in Li-Cor blocking solution containing the indicated primary antibodies and IRDye 680- or 800CW-conjugated secondary antibodies. For in-cell-western, a Li-Cor Odyssey infrared imager was used for detection and quantification of results.
Cells were treated with DMSO alone (vehicle control) or containing test compounds for 1 h before Western blot or in-cell-western was performed.

MM1S human MM xenograft = assay: Combination with lenalidomide in the MM1S xenograft model; assay type: in vivo, SCID/Beige mice; settings: 75 mg/Kg PO Qd (Mon-Fri); 17 days; single agent
Procedure: as §1
Cryopreserved MM1S human MM cells were thawed in a 37° C. water bath and cultured in RPMI medium plus 10% Fetal Bovine Serum (FBS) in a tissue culture incubator at 5% CO2. […] The implanted mice were monitored for general health and tumor development daily.
as §2, §3

**Q.** Which results are given for `COc1ccc(-c2nc(N3CCOCC3)c3sc(CN(C)c4ncc(C(=O)NO)cn4)cc3n2)cn1` [Compound 1, N-hydroxy-2-(((2-(6-methoxypyridin-3-yl)-4-morpholinothieno[3,2-d]pyrimidin-6-yl)methyl)(methyl)amino)pyrimidine-5-carboxamide]?
**A.** T/C value (MM1R subcutaneous tumor; day-17, p<0.0001): 21.15%; Body weight and side effects (MM1R subcutaneous tumor; single agent, 18 days): No body weight loss or other side effects were observed; Tumor growth (MM1R subcutaneous tumor; single agent, 18 days): inhibited tumor growth; Tumor growth ([1]; intravenous (IV) 50 mg/kg): strongly inhibited tumor growth; Tumor growth ([1]; orally (PO) 100 mg/kg): strongly inhibited tumor growth; Tumor growth [2]: efficacious; Phosphorylation of Akt [3]: persistently and potently inhibits phosphorylation of Akt in a dose-dependent manner; Activation of AKT, 4EBP-1 and p70S6 ([3]; 1 μmon): inhibits the activation of AKT and the downstream signaling proteins 4EBP-1 and p70S6; Tumor growth (MM1S human MM xenograft): more effective than Lenalidomide at either 12.5 or 25 mg/Kg PO as single agents

— patent publication US11654136B2, “Phosphoinositide 3-kinase inhibitor with a zinc binding moiety” (Curis, Inc., priority 2011, dated 2023)
